We go through one compound from ChEMBL document CHEMBL5154900, “Design and Synthesis of Dual EZH2/BRD4 Inhibitors to Target Solid Tumors” (J Med Chem, 2022).

The source made the active and inactive calls. No cut-off for these calls is given here.

In series [1] the test system is ASPC1. The series can be described thus: Induction of apoptosis in human ASPC-1 cells assessed as downregulation of Bcl-2 protein at 1 uM inubated for 72 hrs by Western blot analysis. It counts as functional, cell-based. Background: A western blot detects proteins with antibodies after separation by electrophoresis.
Series [2] can be described thus: Toxicity in BALB/c mouse xenografted with human A549 cells assessed as adverse effects at 60 mg/kg, ip administered 6 times weekly for 38 days. It counts as organism-based. The conditions noted are these: in vivo, 912 h, time 38 day.
Series [3] deals with Bromodomain-containing protein 4 (Homo sapiens, UniProt O60885). The series can be described thus: Inhibition of BRD4 in human ASPC1 cells assessed as decrease in c-Myc level at 1 uM incubated for 72 hrs by Western blot analysis. It counts as cell-based.
The test system of series [4] is HCT-116. Put plainly: Induction of apoptosis in human HCT116 cells assessed as early apoptotic cells at 10 uM measured after 72 hrs by flow cytometry (reference value: 2.8 %). It counts as functional.
Series [5] concerns HCT-116. Put plainly: Induction of apoptosis in human HCT116 cells assessed as early apoptotic cells at 20 uM measured after 72 hrs by flow cytometry (reference value: 2.8 %). It counts as functional.
Series [6] is described as follows: Bioavailability in 12 hr fasted BALB/c mouse at 80 mg/kg, po measured for 0.083 to 24 hrs by UPLC-MS/MS analysis. The settings on record: in vivo, time 0.083-24 hrs. The series is classed as ADME, organism-based.
The subject of series [7] is A549. The series can be described thus: Induction of apoptosis in human A549 cells assessed as downregulation of Bcl-xl protein at 1 uM inubated for 72 hrs by Western blot analysis. It counts as functional, cell-based.
The test system of series [8] is HCT-116. The series can be described thus: Antitumor activity against human HCT-116 cells assessed as inhibition of colony formation measured after 12 to 20 days by crystal violet staining based analysis. It counts as functional, cell-based. The settings on record: dose <= 0.4 µM, time 12-20 day, DDE = dose-dependent effect.
Series [9] has as its system A549. The series can be described thus: Effect on TXINP mRNA levels in human A549 cells at 5 uM incubated for 48 hrs by RT-qPCR analysis. The series is classed as functional, cell-based. (In general: Quantitative PCR measures a nucleic acid by following its amplification.)
Series [10] relates to HCT-116. Put plainly: Induction of apoptosis in human HCT116 cells assessed as downregulation of Bcl-xl protein at 1 uM inubated for 72 hrs by Western blot analysis. The series is classed as functional, cell-based.
In series [11] the test system is A549. Put plainly: Effect on TNFRSF21 mRNA levels in human A549 cells at 5 uM incubated for 48 hrs by RT-qPCR analysis. The series is classed as functional, cell-based.
Series [12] concerns the target T1, Histone-lysine N-methyltransferase EZH2 (Homo sapiens, UniProt Q15910).
Target sequence in this assay (Q15910 whole entry): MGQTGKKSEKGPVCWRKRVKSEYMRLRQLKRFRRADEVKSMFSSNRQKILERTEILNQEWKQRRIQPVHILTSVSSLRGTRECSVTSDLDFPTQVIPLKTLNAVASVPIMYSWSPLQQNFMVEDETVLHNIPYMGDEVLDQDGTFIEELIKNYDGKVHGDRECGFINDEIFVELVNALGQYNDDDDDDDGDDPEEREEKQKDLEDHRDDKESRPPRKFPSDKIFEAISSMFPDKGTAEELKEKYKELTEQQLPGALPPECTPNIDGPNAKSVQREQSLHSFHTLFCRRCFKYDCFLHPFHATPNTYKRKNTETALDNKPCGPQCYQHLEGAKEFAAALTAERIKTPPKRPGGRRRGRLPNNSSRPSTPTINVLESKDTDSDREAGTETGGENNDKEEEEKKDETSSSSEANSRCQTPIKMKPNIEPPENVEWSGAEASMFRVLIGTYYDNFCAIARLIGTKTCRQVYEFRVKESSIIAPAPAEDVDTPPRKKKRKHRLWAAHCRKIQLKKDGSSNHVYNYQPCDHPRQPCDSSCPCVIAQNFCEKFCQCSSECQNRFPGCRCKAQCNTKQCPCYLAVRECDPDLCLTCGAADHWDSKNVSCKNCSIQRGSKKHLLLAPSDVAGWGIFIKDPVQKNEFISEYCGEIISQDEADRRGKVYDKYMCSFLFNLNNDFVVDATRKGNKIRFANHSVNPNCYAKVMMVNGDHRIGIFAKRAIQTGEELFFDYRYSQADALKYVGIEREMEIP
Series [13] relates to A549. Put plainly: Antiproliferative activity against human A549 cells assessed as inhibition of cell proliferation at 1 uM incubated for 4 days by cell counter method. It counts as functional, cell-based. The conditions noted are these: time 4.0 day.
The subject of series [14] is ASPC1. The series can be described thus: Effect on TNFRSF21 mRNA levels in human ASPC1 cells at 5 uM incubated for 48 hrs by RT-qPCR analysis. The series is classed as functional, cell-based.
The nature of series [15]: Tmax in 12 hr fasted BALB/c mouse at 80 mg/kg, ip measured for 0.083 to 24 hrs by UPLC-MS/MS analysis. The series is classed as ADME, organism-based. The conditions noted are these: in vivo, time 0.083-24 hrs.
For series [16], the system named is A549. The series can be described thus: Induction of apoptosis in human A549 cells assessed as upregulation of p21 protein at 1 uM inubated for 72 hrs by Western blot analysis. The series is classed as functional, cell-based.
Series [17] concerns ASPC1. Put plainly: Induction of apoptosis in human ASPC-1 cells assessed as upregulation of p21 protein at 1 uM inubated for 72 hrs by Western blot analysis. The series is classed as functional, cell-based.
Series [18] relates to A549. Put plainly: Antitumor activity against human A549 cells xenografted in BALB/c mouse assessed as reduction in tumor weight at 60 mg/kg, ip administered 6 times weekly for 38 days relative to control. The series is classed as functional. Set-up: scale not given: the % may be the effect or the level left. The conditions noted are these: time 38 day. A general note: Xenograft models place foreign cells or tissue in a host animal.

In series [19] the test system is A549. The series can be described thus: Induction of apoptosis in human A549 cells assessed as downregulation of Bcl-2 protein at 1 uM inubated for 72 hrs by Western blot analysis. The series is classed as functional, cell-based.
Series [20] relates to HCT-116. The series can be described thus: Antiproliferative activity against human HCT-116 cells assessed as inhibition of cell proliferation at 1 uM incubated for 4 days by cell counter method. The series is classed as functional, cell-based. The conditions noted are these: time 4.0 day.
In series [21] the test system is ASPC1. Put plainly: Effect on TRHDE mRNA levels in human ASPC1 cells at 5 uM incubated for 48 hrs by RT-qPCR analysis. It counts as functional, cell-based.
The target of series [22] is T1, Histone-lysine N-methyltransferase EZH2. Put plainly: Binding affinity to EZH2 in human A549 cell lysate assessed as increase in thermal stability at 10 uM incubated for 1 hr followed by temperature treatment at 45 to 54.5 degC for 3 mins by thermal shift assay. The settings on record: time 63.0 min. It counts as subcellular.
Target sequence in this assay (Q15910 whole entry, looked up): as the sequence (Q15910 whole entry) above
The subject of series [23] is A549. The series can be described thus: Induction of cell cycle arrest in 24 hr starved human A549 cells assessed as accumulation at G0/G1 phase at 1 uM measured after 48 hrs by PI staining based flow cytometric analysis. It counts as functional.
The test system of series [24] is HCT-116. The series can be described thus: Effect on TNFRSF21 mRNA levels in human HCT-116 cells at 5 uM incubated for 48 hrs by RT-qPCR analysis. The series is classed as functional, cell-based.

For the compound `CCN(c1cc(-c2ccc(OCCCCCNC(=O)C[C@@H]3N=C(c4ccc(Cl)cc4)c4c(sc(C)c4C)-n4c(C)nnc43)cc2)cc(C(=O)NCc2c(C)cc(C)[nH]c2=O)c1C)C1CCOCC1`, the result in [1], in series [7], in series [9], in [10], in [11] and in series [13] was Active. For the same compound, the result in series [14], in [16], in [17], in series [19], in series [20] and in series [21] was Active. Moreover, the result in series [22], in series [23] and in [24] was Active. Also, the Activity result was “Non-Toxic” in series [2]; 63.4% in [4]; 72.9% in series [5]; “Dde” in series [8]; 57.8% in series [18]. The inhibition result in series [3] is “Active”. Further, in series [6], the bioavailability was 4.94%. In series [12], this compound came in with an IC50 of 490 nM. Moreover, in series [15], the Tmax amounted to 1 h.

Broadly, the bioavailability is the share of a dose that reaches the circulation, judged against a reference dose that is usually intravenous. The term IC50 denotes the concentration that gives 50% inhibition. The Tmax is the time from dosing to the highest level.
